The record followed here is US20160130226A1, “SPIRO-SUBSTITUTED OXINDOLE DERIVATIVES HAVING AMPK ACTIVITY” (BOEHRINGER INGELHEIM INTERNATIONAL GMBH, priority 2013, published 2016).

SMILES strings stand for the structures.

In one test the target is T1, AMPK beta 1 (Homo sapiens, UniProt Q13131+Q9Y478).
T1 construct: in-cell-ELISA for phospho-ACC (Acetyl-CoA carboxylase 1) in HepG2 cells (liver); endogenous in cells; host or cells: HepG2 (assignment to the beta 1 column inferred)
T1 sequence (Q9Y478 2-270 limits assumed): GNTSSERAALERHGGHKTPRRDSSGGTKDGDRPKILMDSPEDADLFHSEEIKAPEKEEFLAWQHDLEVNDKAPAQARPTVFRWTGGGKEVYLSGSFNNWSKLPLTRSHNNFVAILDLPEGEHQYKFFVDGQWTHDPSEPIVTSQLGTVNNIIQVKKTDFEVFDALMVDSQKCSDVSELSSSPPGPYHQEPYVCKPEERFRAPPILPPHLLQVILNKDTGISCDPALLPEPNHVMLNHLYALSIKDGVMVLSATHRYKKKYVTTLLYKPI
T1 sequence (Q13131 whole entry): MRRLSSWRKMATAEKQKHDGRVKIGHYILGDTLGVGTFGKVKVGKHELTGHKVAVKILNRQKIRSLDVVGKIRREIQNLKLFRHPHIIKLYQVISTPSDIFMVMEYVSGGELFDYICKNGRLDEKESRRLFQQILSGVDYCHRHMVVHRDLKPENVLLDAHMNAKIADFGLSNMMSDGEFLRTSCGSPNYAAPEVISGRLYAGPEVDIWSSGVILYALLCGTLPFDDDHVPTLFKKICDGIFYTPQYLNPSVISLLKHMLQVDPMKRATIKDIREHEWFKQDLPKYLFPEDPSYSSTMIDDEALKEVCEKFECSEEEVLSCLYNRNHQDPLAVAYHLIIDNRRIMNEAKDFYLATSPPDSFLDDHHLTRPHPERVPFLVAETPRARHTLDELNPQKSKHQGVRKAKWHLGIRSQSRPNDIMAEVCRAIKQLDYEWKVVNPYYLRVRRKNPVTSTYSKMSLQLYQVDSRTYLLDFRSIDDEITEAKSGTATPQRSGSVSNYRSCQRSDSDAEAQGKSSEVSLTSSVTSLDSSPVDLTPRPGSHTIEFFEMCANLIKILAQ
T1 sequence (P54619 whole entry partner): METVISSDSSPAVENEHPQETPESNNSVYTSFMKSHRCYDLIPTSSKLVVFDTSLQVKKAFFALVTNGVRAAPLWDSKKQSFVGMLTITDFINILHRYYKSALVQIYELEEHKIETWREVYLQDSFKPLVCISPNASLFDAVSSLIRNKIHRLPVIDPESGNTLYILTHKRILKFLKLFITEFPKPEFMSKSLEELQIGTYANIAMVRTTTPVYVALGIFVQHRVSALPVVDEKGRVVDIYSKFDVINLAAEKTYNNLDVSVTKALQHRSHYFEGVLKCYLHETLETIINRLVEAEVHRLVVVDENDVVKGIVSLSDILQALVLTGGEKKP
Kind of test: in-cell-ELISA for phospho-ACC: activation of AMPK, beta 1 (HepG2 cells / C2C12 myotubes). It counts as cell-based. The settings on record: 1 μM, 2 h, percentage activation over vehicle control. The method, then: Activation of AMPK by various compounds were measured using in-cell-ELISA for phospho-ACC (Acetyl-CoA carboxylase 1) in HepG2 cells (liver) and fully differentiated myotubes (C2C12 cells) grown in 96 well plate. Cells were treated with 1 μM, 3 μM or 10 μM of the molecule (Example) for 2 h in serum free DMEM media. After methanol fixation, cells were blocked with BSA followed by addition of anti-phospho ACC antibody (Cell Signaling) and HRP conjugated secondary antibody. Absorbance values taken at 450 nm were normalized with total DNA (Hoechest stain). Results were expressed as percentage activation over vehicle control.
Percentage activation at compound (Example) concentration of 1, 3 or 10 μM for compounds according to the invention are shown in the following table. The number of the compound corresponds to the number of the Example (Ex) in the experimental section.
(An ELISA detects its analyte on a solid surface through an enzyme-linked reagent.)
`CC(C)(C(=O)O)c1ccc(C2CC23C(=O)Nc2cc(F)c(-c4ccc(-c5ccc(-n6cncn6)cc5)cc4)cc23)cc1` (stereo not shown) [Example 163]: the “Percentage activation of beta 1 at given concentration” value (from here on “Percentage activation”) is 131% at 1 μM.

For `Cc1ccc(C2CC23C(=O)Nc2cc(Cl)c(-c4ccc(-c5ccc(-n6cncn6)cc5)cc4)cc23)cc1C(=O)O` (stereo not shown) [Example 117], the “Percentage activation” value was 165% at 1 μM.

Staying with this test, now noted: 3 μM, 2 h, percentage activation over vehicle control.
As for `Cc1ccc(C2CC23C(=O)Nc2cc(Cl)c(-c4ccc(-c5ccc(-n6cncn6)cc5)cc4)cc23)cc1CO` (stereo not shown) [Example 185], the “Percentage activation” value was 34% at 3 μM.

`O=C(O)Cc1cccc(C2CC23C(=O)Nc2cc(Cl)c(-c4ccc(-c5ccncc5)cc4)cc23)c1` (stereo not shown) [Example 61]: the “Percentage activation” value is reported as 118% at 3 μM.

For the compound `O=C(O)Cc1cccc(C2CC23C(=O)Nc2cc(Cl)c(-c4ccc(-c5ccncc5)cc4)cc23)c1` (stereo not shown) [Example 58], the “Percentage activation” value amounted to 47% at 3 μM.

Staying with this test, now noted: 10 μM, 2 h, percentage activation over vehicle control.
As to `Cc1ccc(C2CC23C(=O)Nc2cc(Cl)c(-c4ccc(C5(CO)CC5)cc4)cc23)cc1C(=O)O` (stereo not shown) [Example 45], the “Percentage activation” value stood at 80% at 10 μM.

With `O=C(O)Cc1cccc(C2CC23C(=O)Nc2cc(Cl)c(-c4ccc(-c5ccccc5O)cn4)cc23)c1` (stereo not shown) [Example 18], the “Percentage activation” value is 168% at 10 μM.

The test is the same for the next values; noted with them: 2 h, 1 μM, percentage activation over vehicle control, read-out: Percentage activation of beta 1 at given concentration.
Regarding `O=C(O)Cc1cccc(C2CC23C(=O)Nc2cc(F)c(-c4ccc(-c5ccc(-n6cccn6)cc5)cc4)cc23)c1` (stereo not shown) [Example 171], the activation at 1 µM is 44%.

Consider `COc1ccc(C2CC23C(=O)Nc2cc(F)c(-c4ccc(-c5ccc(-n6ccnn6)cc5)cc4)cc23)cc1CC(=O)O` (stereo not shown) [Example 177], for which the activation at 1 µM was 51%.

Regarding `Cn1cc(C2CC23C(=O)Nc2cc(Cl)c(-c4ccc(-c5ccc(-n6cncn6)cc5)cc4)cc23)cc1C(=O)O` (stereo not shown) [Example 126], the activation at 1 µM was determined as 38%.

With `Cc1ccc(C2CC23C(=O)Nc2cc(F)c(-c4ccc(-c5ccc6c(cnn6C)c5)cc4)cc23)cc1C(=O)O` (stereo not shown) [Example 160], the activation at 1 µM was 11%.

For the compound `Cc1ccc(C2CC23C(=O)Nc2c(F)cc(-c4ccc(-c5ccc(-n6cncn6)cc5)cc4)cc23)cc1C(=O)O` (stereo not shown) [Example 155], the activation at 1 µM was 28%.

The same test, now with this note: 2 h, 3 μM, percentage activation over vehicle control, read-out: Percentage activation of beta 1 at given concentration.
Turning to `Cc1ccc(C2CC23C(=O)Nc2cc(Cl)c(-c4ccc(-c5ccncc5)cc4)cc23)cc1C(=O)O` (stereo not shown) [Example 59], the activation at 3 µM came out at 42%.

Consider `O=C1Nc2cc(Cl)c(-c3ccc(-c4ccc(-n5cncn5)cc4)cc3)cc2C12CC2c1ccc(-c2nnn[nH]2)cc1` (stereo not shown) [Example 191], for which the activation at 3 µM is 21%.

With `Cc1ccc(C2CC23C(=O)Nc2cc(Cl)c(-c4ccc(-c5ccccc5C(C)(C)O)cc4)cc23)cc1C(=O)O` (stereo not shown) [Example 53], the activation at 3 µM turned out to be 47%.

With `O=C(O)c1ccc(C2CC23C(=O)Nc2cc(Cl)c(-c4ccc(-c5ccccc5O)cc4)cc23)cc1` (stereo not shown) [Example 32], the activation at 3 µM was found to be 39%.

For the compound `Cc1ccc(C2CC23C(=O)Nc2cc(Cl)c(-c4ccc(-c5ccc(-n6cncn6)cc5)cc4)cc23)cc1C(C)(C)O` (stereo not shown) [Example 186], the activation at 3 µM stood at 32%.

For the compound `Cc1ccc(C2CC23C(=O)Nc2cc(Cl)c(-c4ccc(-c5ccc(-n6cncn6)cc5)cc4)cc23)cc1C(=O)O` (stereo not shown) [Example 116], the activation at 3 µM turned out to be 100%.

Take `Cn1cc(C2CC23C(=O)Nc2cc(F)c(-c4ccc(-c5ccccc5O)cc4)cc23)cc1C(=O)O` (stereo not shown) [Example 14]: the activation at 3 µM came out at 48%.

On to `O=C(O)Cc1cccc(C2CC23C(=O)Nc2cc(F)c(-c4ccc(-c5ccccc5O)cc4)cc23)c1` (stereo not shown) [Example 31], for which the activation at 3 µM amounted to 68%.

Regarding `Cc1ccc(C2CC23C(=O)Nc2cc(Cl)c(-c4ccc(Cc5ccccc5O)cc4)cc23)cc1C(=O)O` (stereo not shown) [Example 34], the activation at 3 µM stood at 47%.

In the case of `Cc1ccc(C2CC23C(=O)N(CC2CC2)c2cc(Cl)c(-c4ccc(-c5ccncc5)cc4)cc23)cc1C(=O)O` (stereo not shown) [Example 109], the activation at 3 µM turned out to be 83%.

With `Cc1ccc(C2CC23C(=O)Nc2cc(Cl)c(-c4ccc(-c5ccc(-n6cnnn6)cc5)cc4)cc23)cc1C(=O)O` (stereo not shown) [Example 140], the activation at 3 µM is 21%.

Staying with this test, now noted: 2 h, 10 μM, percentage activation over vehicle control, read-out: Percentage activation of beta 1 at given concentration.
Turning to `CC(C)c1ccc(C2CC23C(=O)Nc2cc(Cl)c(-c4ccc(-c5ccncc5O)cc4)cc23)cc1C(=O)O` (stereo not shown) [Example 22], the activation at 10 µM came to 271%.

With `Cc1ccc(C2CC23C(=O)Nc2cc(F)c(-c4ccc(-c5ccccc5O)cn4)cc23)cc1C(=O)O` (stereo not shown) [Example 9], the activation at 10 µM amounted to 23%.

For `COc1ccc(C2CC23C(=O)Nc2cc(F)c(-c4ccc(-c5ccncc5)cc4)cc23)cc1C(=O)O` (stereo not shown) [Example 84], the activation at 10 µM was determined as 75%.

Regarding `Cc1ccc(C2CC23C(=O)Nc2cc(Cl)c(-c4ccc(-c5cccnc5)cc4)cc23)cc1C(=O)O` (stereo not shown) [Example 62], the activation at 10 µM is 86%.

On to `COc1ccc(C2CC23C(=O)Nc2cc(F)c(-c4ccc(-c5ccccc5O)cc4)cc23)cc1CC(=O)O` (stereo not shown) [Example 12], for which the activation at 10 µM was 12%.

In the case of `CC(C)c1ccc(C2CC23C(=O)Nc2cc(Cl)c(-c4ccc(-c5ccccc5O)cn4)cc23)cc1C(=O)O` (stereo not shown) [Example 24], the activation at 10 µM was found to be 85%.

On to `Cc1ccc(C2CC23C(=O)Nc2cc(Cl)c(C#Cc4ccncc4)cc23)cc1C(=O)O` (stereo not shown) [Example 79], for which the activation at 10 µM amounted to 112%.

As to `CC(C)c1ccc(C2CC23C(=O)N(C)c2cc(Cl)c(-c4ccc(-c5ncccc5O)cc4)cc23)cc1C(=O)O` (stereo not shown) [Example 37], the activation at 10 µM was found to be 112%.

With `Cc1ccc(C2CC23C(=O)Nc2cc(Cl)c(-c4ccc(N5CCOCC5)cc4)cc23)cc1C(=O)O` (stereo not shown) [Example 66], the activation at 10 µM was 36%.

For the compound `O=C(O)Cc1cccc(C2CC23C(=O)Nc2cc(Cl)c(-c4ccc(-c5cccnc5)cc4)cc23)c1` (stereo not shown) [Example 65], the activation at 10 µM was determined as 89%.

On to `Cc1ccc(C2CC23C(=O)Nc2cc(F)c(-c4ccc(N5CCOCC5)cc4)cc23)cc1C(=O)O` (stereo not shown) [Example 57], for which the activation at 10 µM stood at 89%.

Regarding `Cc1ccc(C2CC23C(=O)Nc2cc(Cl)c(-c4ccc(-c5ccccc5O)cn4)cc23)cc1C(=O)O` (stereo not shown) [Example 8], the activation at 10 µM worked out at 25%.

For the compound `Cn1cc(C2CC23C(=O)Nc2cc(Cl)c(-c4ccc(-c5ccc(-n6cccn6)cc5)cc4)cc23)cc1C(=O)O` (stereo not shown) [Example 120], the activation at 10 µM was determined as 48%.

For `CN(C)c1cc(-c2ccc(-c3cc4c(cc3Cl)NC(=O)C43CC3c3cccc(CC(=O)O)c3)cc2)ccn1` (stereo not shown) [Example 88], the activation at 10 µM is 132%.

As for `Cc1ccc(C2CC23C(=O)Nc2cc(Cl)c(-c4ccc(-c5ccccn5)cc4)cc23)cc1C(=O)O` (stereo not shown) [Example 78], the activation at 10 µM came to 66%.

For `CC(C)c1ccc(C2CC23C(=O)Nc2cc(Cl)c(-c4ccc(OCCO)cc4)cc23)cc1C(=O)O` (stereo not shown) [Example 52], the activation at 10 µM turned out to be 51%.

Take `COc1ccc(C2CC23C(=O)Nc2cc(F)c(-c4ccc(-c5ccccc5O)cc4)cc23)cc1C(=O)O` (stereo not shown) [Example 10]: the activation at 10 µM came out at 40%.

Consider `CCN1C(=O)C2(CC2c2ccc(C)c(CC(=O)O)c2)c2cc(-c3ccc(-c4ccncc4)cc3)c(Cl)cc21` (stereo not shown) [Example 113], for which the activation at 10 µM is 51%.

On to `Cc1ccc(C2CC23C(=O)Nc2cc(Cl)c(-c4ccc(O)cc4)cc23)cc1C(=O)O` (stereo not shown) [Example 29], for which the activation at 10 µM was found to be 40%.

For the compound `Cc1ccc(C2CC23C(=O)Nc2cc(Cl)c(-c4ccc5cc[nH]c5c4)cc23)cc1C(=O)O` (stereo not shown) [Example 93], the activation at 10 µM worked out at 51%.
